Here are results for three molecules from patent US20230277553A1, “THERAPEUTIC COMPOSITION OF CURE-PRO COMPOUNDS FOR TARGETED DEGRADATION OF BET DOMAIN PROTEINS, AND METHODS OF MAKING AND USAGE” (CORNELL UNIVERSITY, priority 2020, published 2023).

Common to all, as to type: cell-based
Assay [1] deals with T1, BRD4 (Homo sapiens, UniProt O60885). Briefly: CURE-PRO-mediated BRD4 degradation with VHL ligands, Western blot, MCF7 cells. The conditions noted are these: MCF7, 24 h, 1:1 with 8305, 100 nM-10 μM. Also noted: endogenous in cells. How it is done:
(§1) All cell lines were purchased from ATCC or DSMZ and grown at 37° C. with 5% CO2. Human HeLa cells were cultured in complete growth medium (Dulbecco's modified Eagle's medium (DMEM) supplemented with 10% FBS); MCF7 cells were cultured in complete growth medium (Dulbecco's modified Eagle's medium (DMEM) supplemented with 10% FBS and 0.01 mg/ml human recombinant insulin (Sigma Aldrich); Namalwa and MOLM-13 cells were cultured in complete growth medium (RPMI 1640 medium supplemented with 10% FBS); MV-4-11 were cultured in complete growth medium (Iscove's Modified Dulbecco's medium, supplemented with 10% FBS); HCT116 cells were cultured in complete growth medium (McCoy's 5a Medium supplemented with 10% FBS). For cellular degradation of BRD4 studies, cells were seeded in a 12-well plate at 70-80% confluency, allowed to attach overnight, and incubated with the indicated compounds for the indicated time. When indicated, a 15-minute pretreatment with 10 μM pomalidomide, 10 μM VHL298, 10 μM Nutlin3a, 1 μM MG-132 or 1 μM Carfilzomib was performed before the addition of CURE-PROs. For washout studies, after CURE-PRO treatment, media was aspirated and incubated with complete medium for the indicated time before lysis.
HeLa, MCF7, or HCT116 cells (2.5-3×10^6) were treated for 24 hours with the indicated compounds solubilized in DMSO. The cells were washed in ice-cold PBS and were then lysed in RIPA lysis buffer (150 mM NaCl, 5 mM EDTA, 1% NP-40, 0.5% sodium deoxycholate, 0.1% SDS, 50 mM Tris, pH 8.0.) with Roche protease inhibitor complete cocktail and phosphatase inhibitors (10 mM sodium fluoride, 10 mM sodium pyrophosphate, 1 mM sodium orthovanadate and 20 mM β-glycerophosphate). The total protein concentrations were determined by Bradford Protein Assay and 10-20 μg of protein was loaded onto 4-15% Tris-Glycine gradient gels (Biorad). After standard gel electrophoresis, the separated proteins were transferred to PVDF membrane by wet transfer. The immunoblots were then blocked for 1 hour in 5% skim milk in TBST or 5% BSA in TBST, according to manufacturer's instructions, before an overnight incubation at 4° C. with indicated antibodies and membranes. Membranes were then incubated with the appropriate horseradish peroxidase-conjugated secondary antibodies (1:5,000 dilution) for 1 h at room temperature and the bands were visualized using the Clarity Max Western ECL Substrate (Biorad) and the ChemiDoc Imaging System (Biorad). Signal was detected with ECL Western Blotting Substrate (Pierce) and X-ray film processed with a Konica SRX-101 X-ray film processor or captured by Bio-Rad's Chemidoc Imaging system.
MCF7 cells (3×10^6) were treated for 24 h with the compounds solubilized in DMSO. Compounds were added at 100 nM-10 μM. […]

For a further assay, the system named is caspase 3/7. Briefly: Caspase-Glo 3/7 assay, Namalwa cells. The conditions noted are these: 24 hours, 1:1 with 8047. Here is the method: Caspase-glo® assay (Promega) was conducted following the manufacturer's recommendations. Cells were seeded at a density of 5000 cells/well in a white 96 well plates (Corning, #3917) in a total volume of 100 μl with respective monomers, combinations of BRD ligands together with E3 ligase ligands or vehicle control treatment. After a 24 h incubation, 100 μl of the […] substrate was added per well and luminescence was read on a Spectramax M5 (Molecular Devices).
Namalwa cells (5×104) were treated for 24 hours with the compounds solubilized in DMSO. FIG. 57 is a bar graph depiction of fold increase of apoptosis assessed via caspase 3/7 activity using the Caspase-glo assay (Promega) described above.
Molm-13 (FIG. 76A) or Namalwa (FIG. 76B) cells (5×10^4) were treated for 24 hours with the compounds solubilized in DMSO in white 96 well plates (10 nM-10 μM solubilized in DMSO). FIG. 76 is a bar graph depiction of fold increase of apoptosis assessed via caspase 3/7 activity using the Caspase-glo assay (Promega) described above.

The target in assay [2] is T1, BRD4. In words: Summary of BRD4 degradation by CURE-PRO pairs, estimated from Western Blot or WES (Proteinsimple). Also noted: endogenous in cells. Particulars: Table 1, CRBN ligand. The text has this: A black check mark indicates efficacy of 30% to 70% or higher protein degradation.
Assay [3] concerns the target T1, BRD4. Briefly: CURE-PRO-mediated BRD4 degradation, Western blot, HeLa cells. Particulars: 24 h. Set-up: endogenous in cells; host or cells: HeLa. The method in brief: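 HeLa cells treated 24 h with compounds in DMSO (1-10 μM, 10 μM or 100 μM each; paired monomers combined 1:1), optional 15-min pretreatment with pomalidomide, VHL298, Nutlin3a (10 μM) or MG-132/carfilzomib (1 μM). RIPA lysates, 10-20 μg protein immunoblotted for BRD4 with β-actin, ECL detection.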
Background: Immunoblotting shows a protein as a band on a membrane.

Assay [4] addresses T1, BRD4. In words: CURE-PRO-mediated BRD4 degradation, WES (ProteinSimple), HeLa cells. Set-up: endogenous in cells; host or cells: HeLa. How it is done:
as §1
Anti-BRD4 (13440, 1:1,000 dilution for Western Blot and 1:25 dilution for ProteinSimple); Anti-BRD2 (5848 1:1,000 dilution for Western Blot and 1:25 dilution for ProteinSimple); β-Actin (3700, 1:2,000 dilution for Western Blot), β-Actin (4970, 1:50 dilution for ProteinSimple) anti-mouse IgG-HRP, and anti-rabbit IgG-HRP antibodies were purchased Cell Signaling Technology. Anti-GAPDH (600-401-A33, 1:100 dilution for ProteinSimple) was purchased from Rockland Immunochemicals, Inc. Anti-BRD3 (sc-81202, 1:200 dilution for Western Blot) was purchased from Santa Cruz Biotechnology.
WES Simple analysis was performed on WES system (ProteinSimple-Biotechne) according to the manufacturer's instructions. Total protein concentrations of cell lysates were determined by the Pierce BCA kit (Thermo Fisher). 3 μL of 0.3 μg/μL of the protein lysate was loaded onto a 12- to 230-kDa WES assay plate (ProteinSimple) where 300 nL sample was withdrawn through a capillary, subjected to electrophoretic separation of proteins by size, and followed by the simultaneous, HRP-based detection of proteins using the Anti-Rabbit Detection Module (Proteinsimple: #DM-001). The electropherograms were checked then the automatic peak detection was manually corrected if it was required.
HeLa cells (2.5×10^6) were treated for 4-24 hours with the compounds solubilized in DMSO. After 4 hours, indicated points were washed and cells were left in full growth media. Compounds were added at 10 μM each. […]

“Also recorded” adds a separate entry of the source. Bounds are passed on as bounds.

As to `COc1ccc2c(c1)C(c1ccc(Cl)cc1)=N[C@@H](CC(=O)NCc1ccc(B(O)O)cc1)c1nnc(C)n1-2` [BRD-E9, (4-((2-((4S)-6-(4-chlorophenyl)-8-methoxy-1-methyl-4H-benzo[f][1,2,4]triazolo[4,3-a][1,4]diazepin-4-yl)acetamido)methyl)phenyl)boronic acid], the “BRD4 degradation, with VHL ligand 8305 (Western blot)” value on BRD4 [1] is listed as “there is degradation of BRD4”.

For `CCNC(=O)C[C@@H]1N=C(c2ccc(Sc3cccc(B(O)O)c3)cc2)c2cc(OC)ccc2-n2c(C)nnc21` [BRD-E52, (3-((4-((4S)-4-(2-(ethylamino)-2-oxoethyl)-8-methoxy-1-methyl-4H-benzo[f][1,2,4]triazolo[4,3-a][1,4]diazepin-6-yl)phenyl)thio)phenyl)boronic acid], the “Caspase 3/7 activation, co-dosed with CRBN ligand 8047” value in the assay with caspase 3/7 is recorded as “demonstrates activation of caspase 3/7; also recorded: marked caspase activation”. On BRD4 [2] (second drawing (8047)), the “Degradation of BRD4 in combination with CRBN ligand [drawing 371]” value was “✓ (A black check mark indicates efficacy of 30% to 70% or higher protein degradation)”. The “Degradation of BRD4 in combination with CRBN ligand [drawing 372]” value on BRD4 [2] (third drawing (8066)) is given as “✓ (A black check mark indicates efficacy of 30% to 70% or higher protein degradation)”. Further, the “BRD4 degradation, BRD ligand with pomalidomide (no 8047)” value on BRD4 [3] (10 μM) is reported as “failed to induce BRD4 degradation”. Further, the “BRD4 degradation, co-treatment with CRBN ligand 8047” value on BRD4 [3] (1:1 with 8047, 10 μM each, Western blot) is on record as “causes degradation of BRD4”. Also, the “BRD4 degradation, co-dosing with CRBN ligand 8047 (WES)” value at BRD4 [4] (10 μM each, 4-24 h with washout after 4 h, or 100 nM-10 μM) is reported as “marked BRD4 degradation after 4h with sustained degradation for up to 8h after drugs are washed out”. Also, the “Concentration from which BRD4 protein expression decreases, with 8047 (WES)” value on BRD4 [4] (24 h, tested 100 nM-10 μM each) is at least 300 nM.

As for `CCNC(=O)C[C@@H]1N=C(c2ccc(Sc3ccccc3)cc2)c2cc(OC)ccc2-n2c(C)nnc21` [BRD-E52C, N-ethyl-2-((4S)-8-methoxy-1-methyl-6-(4-(phenylthio)phenyl)-4H-benzo[f][1,2,4]triazolo[4,3-a][1,4]diazepin-4-yl)acetamide], the “Concentration at which BRD4 degradation is induced, with 8047 (WES)” value at BRD4 [4] (24 h, tested 100 nM-10 μM each) is above 10 µM.
